Patent US4849428A, “Cyclic anti-inflammatory derivatives of di-tert-butylphenol compounds, compositions and use” (The Procter & Gamble Company, priority 1987, dated 1989)

Key:
[1] = tested on: rheumatoid arthritis or osteoarthritis; experiment: Oral capsules in patients with rheumatoid arthritis or osteoarthritis; assay type: in vivo, patient; details: capsule, orally once a day
Method: Capsules are prepared by conventional methods, comprised as follows: […]

[2] = tested on: Carrageenan Rat Paw Edema; experiment: Carrageenan Rat Paw Edema Test; assay type: in vivo, Male Sprague-Dawley rats; details: for Percent Inhibition at 100 mg/kg dose p.o.: 100 mg/kg p.o. 1 h before carrageenan, paw volume 4 h after carrageenan, relative to control; for ED35: oral, by regression analysis, read-out: ID35
Method: Carrageenan Rat Paw Edema Test
Male Sprague-Dawley rats (Charles River Laboratories) are weighed and food fasted overnight. The animals are then divided into four to six groups of six animals each according to body weights (average about 145 g) so that each group has about the same average body weight (within 10 g).
The following morning animals are dosed with the test compound and then placed in individual cages. For oral dosing, the drug is suspended in 0.5% methyl cellulose with 2% Tween 80, and delivered via stomach tube in a 5 ml volume.
Paw volumes (0 time) are determined on both hind paws with a mercury displacement device equipped with a transducer and digitizer. One hour after dosing the test compound, the animals are placed in a plastic restrainer and 50 ul of a 1% (w/w) carrageenan solution in 0.9% saline is injected into the ventral surface of the left rear paw. Four hours after the carrageenan injection, the paw volumes are again determined.
The results are expressed as percent inhibition of the mean paw volume of the test group relative to the control group. Statistical differences are determined by one way analysis of variance. ID35 values are determined by regression analysis.

osteoarthritis = experiment: Oral tablets in patients with osteoarthritis; assay type: in vivo, patient; details: tablet, twice daily
Method: (§1) Tablets are prepared by conventional methods, such as mixing and direct compaction, formulated as follows: […]

rheumatoid arthritis = experiment: Oral tablets in patients with rheumatoid arthritis; assay type: in vivo, patient; details: tablet, orally two times daily
Method: as §1

C#CCCCC(=O)c1cc(C(C)(C)C)c2c(c1)C(C)(C)CO2 [Compound 8C]
reduction of symptomology in rheumatoid arthritis or osteoarthritis patient [1]: substantially reduces the symptomology | Percent Inhibition at 100 mg/kg dose p.o. [2]: 48.8% | ED35 [2]: 2.4 mg/kg | benefit in osteoarthritis patient (osteoarthritis): significant benefit | reduction of inflammation in rheumatoid arthritis patient (rheumatoid arthritis): significantly reduces the inflammation

C#CC(O)CCC(=O)c1cc(C(C)(C)C)c2c(c1)C(C)(C)CO2 (stereo not drawn) [Compound 8D]
Percent Inhibition at 100 mg/kg dose p.o. [2]: 60.8% | ED35 [2]: 1.6 mg/kg

C#CCCCC(=O)c1cc(C(C)(C)C)c2c(c1)C(C)(C)C(O)O2 (stereo not drawn) [Compound 13C]
Percent Inhibition at 100 mg/kg dose p.o. [2]: 53.2% | ED35 [2]: 12.9 mg/kg
